Read-outs that look alike come from different tables or passages of the source.
What was measured:
rat adipocytes = test: In vitro lipolysis assay in rat adipocytes (glycerol production); format: cell-based; details: for inhibition at 1 µM / inhibition at 0.1 µM / EC50: Rattus norvegicus, Adipocyte; for inhibition at 1 µM / inhibition at 0.1 µM: read-out: % Inhibition of glycerol production; for EC50: read-out: EC50 (50% inhibition of glycerol production)
Procedure: Adipose tissue is removed from anesthetized rats and rinsed twice in incubation medium (2.09 g sodium bicarbonate and 0.04 g EDTA, disodium salt, in 1 L Krebs buffer). Each rat (300-350 g) yields approximately 4 ml of adipose tissue. The adipose tissue (35 ml) is cut into small pieces with scissors and washed with incubation medium (50 ml). The mixture is poured into the barrel of a 50 ml syringe to which is attached a short piece of clamped tubing instead of a needle. The aqueous phase is allowed to drain. A second wash with incubation medium is passed through the syringe. The tissue is added to 50 ml of collagenase solution (collagenase(90 mg), bovine serum albumin (BSA) (500 mg), and 0.1 M calcium chloride solution (1 ml), in incubation medium (50 ml)) in a 1 L bottle. The mixture is shaken in an environmental at 37° C. for about 60 minutes under an atmosphere of 95% oxygen/5% carbon dioxide to effect digestion of the tissue. The dispersed cells are poured through 2 layers of cheese cloth into a 100 ml plastic beaker. The undigested clumps in the cloth are rinsed once with incubation medium (20 ml). The cells in the beaker are centrifuged in 2 plastic tubes for 30 seconds at room temperature at 300 rpm. The aqueous phase is aspirated from beneath the loosely packed layer of floating fat cells and discarded. The adipocytes are gently poured into a 250 ml plastic beaker containing 100 ml of rinse solution (1 g BSA per 100 ml incubation medium). After gentle stirring the centrifugation step is repeated. Another wash with rinse solution follows. The cells are pooled and their volume is estimated with a graduated cylinder. The adipocytes are diluted in twice their volume of assay buffer (incubation medium (120 ml), BSA (1.2 g), pyruvic acid (13 mg)).
The assay is performed in 20 ml plastic scintillation vials and the total assay volume is 4.2 ml. Assay buffer (2.5 ml), diluted adipocytes (1.5 ml), and a solution of the compound to be tested (12.3 μL) adenosine agonist (12.3 μl; varying concentration) is incubated in the environmental shaker for 15 minutes, then the reaction is started with norepinephrine solution (41.2 μL) (10 nM, in a carrier solution containing water (100 ml), BSA (4 mg), and 0.1 M EDTA (20 I. LL))and adenosine deaminase (1 μg/ml, 41.2 μl). After sixty minutes in the shaker the reaction is terminated by putting the vials on ice. […] The hard lipid layer is removed by aspiration and the aqueous layer is assayed for glycerol (400 μl of sample). The positive control is done in the absence of any adenosine agonist, substituting water in place of the solution to be tested.

swine coronary arteries = test: In vitro vasorelaxation in isolated swine coronary arteries (PGF2α-contracted rings); format: cell-based; details: Sus scrofa; for IC50: read-out: Vasorelaxation (IC50); for EC50: Table II
Procedure: Swine coronary arteries were obtained from a local slaughter house, dissected carefully and cleaned of fat, blood and adhering tissue. Rings approximately 2-3 mm wide were cut and transferred to water-jacketed tissue baths (10 ml) filled with warm (37° C.), oxygenated (O2 /CO2 :95%/5%) Krebs-Henseleit buffer and mounted on L-shaped hooks between stainless steel rods and a force transducer. […] Rings were equilibrated for 90 minutes with frequent buffer changes at a resting tension of 5 g In order to assure optimal tension development, arterial rings were primed twice with 36 mM KCl and once with 10 μm. PGF2α, before being exposed to 3 μM PGF2α. […] Tension achieved with 3 μM PGF2α was considered .equivalent to 100%; all other values were expressed as a percentage of that maximum.

[1] = test system: normotensive anesthetized rat; test: In vivo mean arterial pressure and heart rate in normotensive anesthetized rat; details: iv
Procedure: Normotensive rats were anesthetized with sodium pentobarbital (50 mg/kg, j.p.) and placed on a heated surgical table. Cannulas were inserted into the femoral artery and […] to allow the measurement of arterial pressure and to facilitate the intravenous administration of test compounds. The animals was allowed to equilibrate for 10 minutes after surgery. Mean arterial pressure was continuously measured and recorded and heart rate was monitored using the arterial pressure pulse to trigger a cardiotachometer. After baseline parameters were established and recorded, increasing doses (1, 3, 10, 30, 100, 300 and 1000 μg/kg) of the compound of the invention to be tested were administered intravenously. Maximal changes in the cardiovascular parameters were observed after each dose of the adenosine agonist. Only one compound was administered per rat.

[2] = 50% reduction in tension, 3 μM PGF2α, read-out: Vasorelaxation in Swine Coronary Artery/IC50
[3] = 0.1 μM, versus positive control
[4] = read-out: Vasorelaxation in Swine Coronary Artery/IC50 (μM), 50% reduction in tension, 3 μM PGF2α
[5] = dose lowering heart rate by 25%, read-out: Blood Press/Heart Rate Anesthetized Rat HR/ED25
[6] = dose lowering mean arterial pressure by 25%, read-out: Blood Press/Heart Rate Anesthetized Rat MAP/ED25

## CCNC(=O)[C@H]1O[C@@H](n2cnc3c(N)nc(NCCc4ccc(CCC(=O)O)cc4)nc32)[C@H](O)[C@@H]1O [CGS21680, reference compound]
Rat adipocytes
  inhibition at 1 µM: 0%
Rat adipocytes; in words
  antilipolytic activity: do not exhibit antilipolytic activity
Swine coronary arteries
  IC50: 0.08 µM

## OC[C@H]1O[C@@H](n2cnc3c(NC4CCCC4)ncnc32)[C@H](O)[C@@H]1O [CPA, N-cyclopentyladenosine, reference compound]
Rat adipocytes
  inhibition at 0.1 µM: 97%
  inhibition at 1 µM: 100%
  EC50: 0.31 nM
Swine coronary arteries
  IC50: 3.18 µM

## CCNC(=O)[C@H]1C[C@@H](n2cnc3c(N[C@H](C)Cc4ccc(Cl)s4)[n+]([O-])cnc32)[C@H](O)[C@@H]1O [Example 35, (2S)-2α,3α-dihydroxy-4β-[N6-[2-(5-chloro-2-thienyl)-(1R)-1-methylethyl]amino-9-adenyl]cyclopentane-1β-N-ethylcarboxamide-N^1-oxide]
Swine coronary arteries; [2]
  EC50: 3.3 µM

## CO[C@@H]1[C@H](O)[C@@H](CO)O[C@H]1n1cnc2c(N[C@H](C)Cc3ccc(Cl)s3)ncnc21 [Example 48, N^6-[2-(5-chloro-2-thienyl)-(1R)-1-methylethyl]-2'-O-methyladenosine]
Rat adipocytes
  EC50: 1.86 nM
Rat adipocytes; [3]
  inhibition at 0.1 µM: 88%

## CCNC(=O)[C@H]1O[C@@H](n2cnc3c(N)ncnc32)[C@H](O)[C@@H]1O [NECA, N-ethylcarboxamidoadenosine, reference compound]
Rat adipocytes
  EC50: 2.5 nM

## CCNC(=O)[C@H]1C[C@@H](n2cnc3c(NC(Cc4cccs4)C(C)C)ccnc32)[C@H](O)[C@@H]1O (stereo partly drawn) [Example 38, [1S-[1α,2β,3β,4α]]-4-[7-[[2-(2-thienyl)-1-isopropylethyl]amino]-3 H-imidazo[4,5-b]pyridin-3-yl]-N-ethyl-2,3-dihydroxycyclopentanecarboxamide]
Swine coronary arteries; [2]
  EC50: 0.47 µM

## CCNC(=O)[C@H]1C[C@@H](n2cnc3c(NCCc4cccs4)ccnc32)[C@H](O)[C@@H]1O (relative stereo) [Example 30, (±)-N6-[1-(thiopheny-2-yl)ethan-2-yl]-N'-1-deazaaristeromycin-5'-N-ethyl carboxamide]
Swine coronary arteries; [4]
  EC50: 12.1 µM
[1]; [5]
  ED25: > 0.01 mg/kg
[1]; [6]
  ED25: 0.006 mg/kg

## CO[C@@H]1[C@H](O)[C@@H](CO)O[C@H]1n1cnc2c(N[C@H](C)Cc3sccc3Cl)ncnc21 [Example 47, N^6-[2-(3-chloro-2-thienyl)-(1R)-1-methylethyl]-2'-O-methyladenosine]
Rat adipocytes; unit nM in cell
  EC50: 0.63 nM
Rat adipocytes; [3]
  inhibition at 0.1 µM: 94%
Swine coronary arteries; [2]
  EC50: 5.7 µM

## CCNC(=O)[C@H]1C[C@@H](n2cnc3c(NC(CC)Cc4sccc4Cl)ccnc32)[C@H](O)[C@@H]1O (stereo partly drawn) [Example 37, [1S-[1α,2β,3β,4α]]-4-[7-[[2-(3-chloro-2-thienyl)-1-ethylethyl]amino]-3 H-imidazo[4,5-b]pyridin-3-yl]-N-ethyl-2,3-dihydroxycyclopentane-carboxamide]
Swine coronary arteries; [2]
  EC50: 0.45 µM

## CCNC(=O)[C@H]1C[C@@H](n2cnc3c(N[C@H](C)Cc4ccc(Cl)s4)ncnc32)[C@@H]2OC(=S)O[C@@H]21 [Example 46, (2S)-2α,3α-dihydroxy-4β-[N6-[2-(5-chloro-2-thienyl)-(1R)-1-methylethyl]amino-9-adenyl]cyclopentane-1β-N-ethylcarboxamide-2,3-thiocarbonate]
Rat adipocytes; unit nM in cell
  EC50: 4 nM
Swine coronary arteries; [4]
  EC50: 3.52 µM

## C[C@H](Cc1ccccc1)Nc1ncnc2c1ncn2[C@@H]1O[C@H](CO)[C@@H](O)[C@H]1O [R-PIA, R-phenylisopropyladenosine, reference compound]
Rat adipocytes
  EC50: 1 nM
Swine coronary arteries
  IC50: 0.76 µM

## OC[C@H]1O[C@@H](n2cnc3c(N[C@@H]4CC=CC[C@H]4c4ccsc4)ncnc32)[C@H](O)[C@@H]1O (relative stereo) [Example 8, N^6-[trans-2-(thiophen-3-yl)-cyclohex-4-en-1-yl]adenosine]
[1]; [5]
  ED25: 0.023 mg/kg
[1]; [6]
  ED25: 0.01 mg/kg

## CCNC(=O)[C@H]1C[C@@H](n2cnc3c(N[C@H](C)Cc4ccc(Cl)s4)ncnc32)[C@H](OC(=O)OC)[C@@H]1OC(=O)OC [Example 42, (2S)-2α,3α-bis-methoxycarbonyloxy-4β-[N6-[2-(5-chloro-2-thienyl)-(1R)-1-methylethyl]amino-9-adenyl]cyclopentane-1β-N-ethylcarboxamide]
Swine coronary arteries; [4]
  EC50: 2.44 µM

## CCNC(=O)[C@H]1O[C@@H](n2cnc3c(NC4CC=CCC4c4cccs4)ncnc32)[C@H](O)[C@@H]1O (single isomer, unassigned) [Example 5, N6-[trans-2-(thiophen-2-yl)cyclohex-4-en-l-yl]adenosine-5'-N-ethylcarboxamide]
Swine coronary arteries; [4]
  EC50: 0.068 µM

## CO[C@@H]1[C@H](O)[C@@H](CO)O[C@H]1n1cnc2c(N[C@@H]3CC=CC[C@H]3c3cccs3)ncnc21 (relative stereo) [Example 49, N^6-[trans-5-(2-thienyl)cyclohex-1-en-4-yl]-2'-O-methyladenosine]
Rat adipocytes
  EC50: 18.6 nM
Rat adipocytes; [3]
  inhibition at 0.1 µM: 85%
Swine coronary arteries; [4]
  EC50: 9.81 µM

## CCNC(=O)[C@H]1C[C@@H](n2cnc3c(N[C@H](C)Cc4ccc(Cl)s4)ncnc32)[C@H](OC(=O)NC)[C@@H]1OC(=O)NC [Example 45, (2S)-2α,3α-bis-methylcarbamoyloxy-4β-[N6-[2-(5-chloro-2-thienyl)-(1R)-1-methylethyl]amino-9-adenyl]cyclopentane-1β-N-ethylcarboxamide]
Swine coronary arteries; [2]
  EC50: 4.1 µM

## CCNC(=O)[C@H]1C[C@@H](n2cnc3c(N[C@H](C)Cc4ccc(Cl)s4)ncnc32)[C@@H]2OC(OCC)O[C@@H]21 (stereo partly drawn) [Example 43, (2S)-2α,3α-dihydroxy-4β-[N6-[2-(5-chloro-2-thienyl)-(1R)-1-methylethyl]amino-9-adenyl]cyclopentane-1β-N-ethylcarboxamide ethoxymethylene acetal]
Swine coronary arteries; [4]
  EC50: 7.83 µM

## CCNC(=O)[C@H]1C[C@@H](n2cnc3c(NCCc4nccs4)ncnc32)[C@H](O)[C@@H]1O (relative stereo) [Example 25, (±)-N^6-[2-(2"-thiazolyl)ethyl]-carbocyclic adenosine-5'-N-ethyl carboxamide]
Swine coronary arteries; [2]
  EC50: 0.64 µM

## CCNC(=O)[C@H]1C[C@@H](n2cnc3c(N[C@H](CC)Cc4ccc(Cl)s4)ccnc32)[C@H](O)[C@@H]1O [Example 41, [1S-[1α,2β,3β,4α]]-4-[7-[[2-(5-chloro-2-thienyl)-1-ethylethyl]amino]-3 H-imidazo[4,5-b]pyridin-3-yl]-N-ethyl-2,3-dihydroxycyclopentane-carboxamide]
Rat adipocytes; [3]
  inhibition at 0.1 µM: 88%

## CCNC(=O)[C@H]1C[C@@H](n2cnc3c(N[C@H](C)Cc4cccs4)ccnc32)[C@H](O)[C@@H]1O [Example 40, [1S-[1α,2β,3β,4α(S*)]]-4-[7-[[2-(2-thienyl)-1-methylethyl]amino]-3 H-imidazo[4,5-b]pyridin-3-yl]-N-ethyl-2,3-dihydroxycyclopentane-carboxamide]
Swine coronary arteries; [2]
  EC50: 0.283 µM
